Experimental data as given in patent EP0288055B1, “Use of ODC inhibitors, dacarbazine, and interferon, in the treatment of malignant melanoma” (MERRELL DOW PHARMACEUTICALS INC., priority 1987, dated 1988).

Tested on: B16 melanoma
Test: Effect on the growth of B16 melanoma in mice (tumor weight at sacrifice)
Type: in vivo
Conditions: for Tumor Weight (g) (Mean ± S.E.): B16 melanoma cells (1 x 10^5 cells/animal) S.C., tumors weighed on day 18, DFMO 2% in drinking water day 1-18, DTIC 6.25 mg/Kg i.p. once daily day 1-15, IFN 1000 units/animal S.C. alternate days day 2-18; for % Inhibition: inhibition of tumor weight vs control on day 18, same dosing as for tumor weight
Description: EFFECT OF A COMBINATION OF α-DIFLUOROMETHYLORNITHINE (DFMO), DACARBAZINE (DTIC) AND α-INTERFERON (IFN) ON THE GROWTH OF B16 MELANOMA IN MICE

Compound	Tumor Weight (g) (Mean ± S.E.)	% Inhibition
CN(C)N=Nc1[nH]cnc1C(N)=O [DTIC, 5-(3,3-Dimethyl-1-triazenyl)-1H-imidazole-4-carboxamide]	3.2 ± 0.63 g	35.0%
NCCC[C@](N)(C(=O)O)C(F)F [DFMO, α-difluoromethyl ornithine]	1.02 ± 0.15 g	86.0%
